US6949516B2, “Dipeptide apoptosis inhibitors and the use thereof” (Cytovia, Inc., priority 1997, dated 2005)

Assays:
[1] = test system: PARP cleavage in Jurkat cells; assay: Inhibition of PARP cleavage in antiFas-treated Jurkat cells (Example 22, Western blot); type: cell-based, human; conditions: for inhibition of PARP cleavage: antiFas-treated Jurkat cells
Excerpt: The cleavage of the enzyme poly(ADP)ribose polymerase (PARP) appears to occur in all cells in which the caspase proteolytic cascade is activated. For this reason, PARP cleavage is widely used as a biochemical marker for caspase-mediated apoptosis. The ability of a cytoprotective drug to block PARP cleavage is considered to be an indication of the drug's ability to inhibit the caspase proteolytic cascade and, in particular, CPP32 (caspase-3), the main PARP protease. The ability of Cbz-Val-Asp(OMe)-CH2F to inhibit PARP cleavage was examined during Fas-mediated apoptosis of Jurkat cells, a human T-cell line. This cell culture model of apoptosis is well-characterized and is known to involve activation of at least two caspases, caspase-3 (CPP32) and caspase-8 (FLICE/MACH).
For PARP cleavage assays, Jurkat cells were seeded at a density of 500,000 cells per well in six-well multidishes in RPMI 1640 medium containing 10% FBS. The cells were pre-incubated with Cbz-Val-Asp(OMe)-CH2F or other test compounds for 2 hours at 37° C. in a CO2 incubator and then a monoclonal antibody to Fas was added at a final concentration of 500 ng/mL. Incubation at 37° C. in a CO2 incubator was continued for an additional 4 hours. […] An amount of lysate corresponding to 10 to 20 μg of protein was loaded on a 7.5% SDS polyacrylamide gel and electrophoresed for 2 to 2.5 hrs at 25 mA. The protein was then transferred to a PVDF membrane, probed with a rabbit polyclonal antibody to PARP, and visualized using chemiluminescence.
Jurkat cells were pre-incubated with 0.5, 5, or 50 μM of the following compounds: Cbz-Val-Asp(OMe)-CH2F (compound 1); BOC-Asp(OMe)-CH2F (compound 5); Cbz-Asp-α-([2,6-dichlorobenzoyloxy]-methyl ketone) (compound 6), Cbz-Glu(OMe)-Val-Asp(OMe)-CH2F (compound 3), Cbz-Asp(OMe)-Glu(OMe)-Val-Asp(OMe)-CH2F (SEQ ID NO:1) (compound 2), Cbz-Ile-Glu(OMe)-Thr-Asp(OMe)-CH2F (SEQ ID NO:2) (compound 4), or Cbz-Val-Ala-Asp(OMe)-CH2F (compound 7). The cells were then treated with antiFas and processed for Western Blotting.

Caspase-3 [2] = target: T1, Caspase-3 (Homo sapiens, UniProt P42574); assay: Recombinant caspase assay with Ac-DEVD-AMC, caspase-3; type: biochemical; conditions: 10 μM Ac-DEVD-AMC, 30 minutes at 37° C.
T1 sequence (P42574 29-175 limits assumed): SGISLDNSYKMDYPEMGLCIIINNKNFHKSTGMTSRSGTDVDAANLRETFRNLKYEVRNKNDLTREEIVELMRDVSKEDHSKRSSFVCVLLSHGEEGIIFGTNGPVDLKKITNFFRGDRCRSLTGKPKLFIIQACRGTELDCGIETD
Procedure: (§1) The inhibitory activity of Cbz-Val-Asp-CH2F in recombinant caspase 3, 6, 7 and 8 obtained from PharMington (a Becton division company, San Diego, Calif.) were measured using Ac-DEVD-AMC (SEQ ID NO:1). The amount of each enzyme per assay was as following: 1 ng caspase3, 15 ng caspase6, 2 ng caspase7 and 60 ng caspase8. The enzyme reaction was conducted in 96-well plate using a caspase buffer (20 mM PIPES, 100 mM NaCl, 10 mM DTT, 1 mM EDTA, 0.1% CHAPS and 10% sucrose, pH 7.2) and the reaction was initiated by adding 10 μM Ac-DEVD-AMC (SEQ ID NO:1) (purchased from Quality Controlled Biochemicals, Inc. Hopkinton, Mass.). Twelve concentrations of Cbz-Val-Asp-CH2F ranged from 30 μM to […] were tested after incubation of the compound with recombinant caspases for 30 minutes at 37° C. […] The data was analyzed using GraphPrism software.

Caspase-8 = target: T2, Caspase-8 (Homo sapiens, UniProt Q14790); assay: Recombinant caspase assay with Ac-DEVD-AMC, caspase-8; type: biochemical; conditions: 10 μM Ac-DEVD-AMC, 30 minutes at 37° C.
T2 construct: purchased PharMington (PharMingen, a Becton division company, San Diego, Calif.)
Procedure: as §1

Caspase-3 [3] = target: T1, Caspase-3; assay: Caspase-3 activity of the dipeptide inhibitors (Table III); type: biochemical
[4] = test system: PARP cleavage in Jurkat cells; assay: Effect of Z-VD-fmk on PARP cleavage in antiFas-treated Jurkat cells (Example 24); type: cell-based, human
Procedure: Poly(ADP)ribose polymerase (PARP) was one of the first caspase-3 substrates identified and the cleavage of PARP is still considered to be a near-universal marker for caspase-3 activation and caspase-mediated apoptosis. The ability of an anti-apoptotic compound to block PARP cleavage is therefore a useful indicator of its ability to inhibit apoptosis. The potency of Z-VD-fmk in a PARP cleavage assay was tested using antiFas-treated Jurkat cells. 2×10^6 Jurkat cells were seeded in each well of a 6-well dish and pre-incubated with test compounds for 30 minutes. The cells were then challenged with 500 ng/mL of an agonistic antiFas antibody or PBS for 4 hours. The cells were then harvested, pelleted gently, washed two times with PBS and lysed in RIPA buffer. Aliquots of the lysate were analyzed by SDS-PAGE and the proteins were transferred to PVDF membranes for Western blotting. The primary antibody was a polyclonal antiPARP serum which cross-reacts with both full-length PARP and the caspase-3-generated cleavage product.

[5] = test system: DNA laddering in Jurkat cells; assay: DNA laddering in antiFas-treated Jurkat cells; type: cell-based, human; conditions: antiFas 100 ng/mL for 4 hours
Excerpt: In the later stages of apoptosis, cells begin to literally fall apart as pieces of the cytoplasm are shed (through blebbing) and the nucleus is disassembled. One of the hallmarks of nuclear disassembly is the cleavage of genomic DNA into nucleosome-sized fragments (termed “DNA laddering”). DNA laddering, like other late stage apoptotic events, is considered to be irreversible, so it is important to determine whether an anti-apoptotic drug can prevent its occurrence.
The ability of Z-VD-fmk to block DNA laddering was tested using antiFas-treated Jurkat cells. Jurkat cells were plated in 60 mm dishes at a density of 5×10^6 cells and pre-incubated with varying concentrations of Z-VD-fmk. They were then challenged with antiFas at 100 ng/mL for 4 hours, harvested, and pelleted and washed with PBS twice. Genomic DNA was isolated using the method of Eldadah et al. (1996). Briefly, the cells were lysed in 2 mL of 7M guanidine HCl and mixed with 1 mL of Wizard miniprep DNA purification resin (Promega). The resin/DNA complex was washed twice with buffer and the DNA was eluted in TE. 1 to 2 μg of this DNA sample was electrophoresed on a 1% agarose/TBE gel and the gel was stained with ethidium bromide.
Vehicle treated cells which were challenged with antiFas show a characteristic laddering pattern of DNA extending down to about 300 bp. […]

T2 sequence (Q14790 217-374 limits assumed): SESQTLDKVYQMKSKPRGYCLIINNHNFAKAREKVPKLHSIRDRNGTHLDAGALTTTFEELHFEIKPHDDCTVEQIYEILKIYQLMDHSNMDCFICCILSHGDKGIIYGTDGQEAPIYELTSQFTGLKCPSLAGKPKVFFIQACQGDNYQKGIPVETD

Row | SMILES | inhibition of PARP cleavage ([1]; 0.5 μM) | inhibition of PARP cleavage ([1]; 5 μM) | inhibition of PARP cleavage ([1]; 50 μM) | concentration blocking the caspase proteolytic cascade in intact cells, fold lower than other known caspase inhibitors ([1]; Jurkat cells) | IC50 (Caspase-3 [2]) | IC50 (Caspase-8) | IC50 (Caspase-3 [3]) | inhibition of PARP cleavage ([4]; 50 nM, antiFas-treated Jurkat cells) | inhibition of PARP cleavage ([4]; 250 nM, antiFas-treated Jurkat cells) | inhibition of PARP cleavage ([4]; 500 nM, antiFas-treated Jurkat cells) | potency as inhibitor of PARP cleavage in intact cells, fold relative to Z-VAD-fmk ([4]; Jurkat cells) | IC50 ([4]; antiFas-treated Jurkat cells, read-out: IC50, inhibition of PARP cleavage (whole-cell apoptosis model)) | dose inhibiting DNA ladder formation [5]
1 | COC(=O)CC(NC(=O)C(NC(=O)OCc1ccccc1)C(C)C)C(=O)CF (stereo not drawn) [Cbz-Val-Asp(OMe)-CH2F, Z-Val-Asp-fmk Methyl Ester] | significant inhibition | completely inhibited | completely inhibited | at least 10 fold |  |  |  |  |  |  |  |  | 
2 | CC(C)[C@H](NC(=O)OCc1ccccc1)C(=O)NC(CC(=O)O)C(=O)CF (stereo partly drawn) [Cbz-Val-Asp-CH2F, Z-Val-Asp-fmk] |  |  |  |  | 19.8 nM | 7.2 nM | 40 nM | still retains much of its inhibitory activity | completely inhibits | completely inhibits | at least 10 fold | < 50 nM | ≤ 50 nM
